What follows are compounds tested against T1, human NK3 receptor (Homo sapiens, UniProt P29371) (assay: [3H]SR142801 competition binding assay (hNK3 receptor binding)). Conditions: [3H]SR142801 radioligand; membranes from HEK293 cells transiently expressing recombinant human NK3 receptor; Ki by Cheng-Prussoff; read-out: KiNK3 h.
T1 construct: expressed in transfected cells; host or cells: HEK293 cells (transient expression), membrane preparation
T1 sequence (P29371 1-465): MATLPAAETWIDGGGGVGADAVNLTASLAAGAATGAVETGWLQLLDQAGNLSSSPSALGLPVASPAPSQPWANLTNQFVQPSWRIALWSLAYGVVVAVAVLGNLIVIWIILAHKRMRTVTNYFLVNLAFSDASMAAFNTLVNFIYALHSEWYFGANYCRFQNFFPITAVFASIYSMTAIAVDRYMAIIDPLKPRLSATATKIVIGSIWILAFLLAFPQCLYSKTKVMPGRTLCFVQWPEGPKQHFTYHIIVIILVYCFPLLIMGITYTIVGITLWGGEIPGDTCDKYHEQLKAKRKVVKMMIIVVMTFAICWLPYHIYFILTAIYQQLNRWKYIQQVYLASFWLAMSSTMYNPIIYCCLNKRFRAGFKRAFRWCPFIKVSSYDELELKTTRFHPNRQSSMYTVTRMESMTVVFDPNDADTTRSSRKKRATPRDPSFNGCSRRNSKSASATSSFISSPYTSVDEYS
Method: [^3H]SR^142801 Competition Binding Assay
hNK3 receptor binding experiment were performed using [^3H]SR^142801 (Catalog No. TRK1035, specific activity: 74.0 Ci/mmol, Amersham, GE Healthcare UK limited, Buckinghamshire, UK) and membrane isolated from HEK293 cells transiently expressing recombinant human NK3 receptor. After thawing, the membrane homogenates were centrifuged at 48,000×g for 10 min at 4° C., the pellets were resuspended in the 50 mM Tris-HCl, 4 mM MnCl2, 1 μM phosphoramidon, 0.1% BSA binding buffer at pH 7.4 to a final assay concentration of 5 μg protein/well. […] At the end of the incubation, membranes were filtered onto unitfilter (96-well white microplate with bonded GF/C filter preincubated 1 h in 0.3% PEI +0.3% BSA, Packard BioScience, Meriden, Conn.) with a Filtermate 196 harvester (Packard BioScience) and washed 4 times with ice-cold 50 mM Tris-HCl, pH 7.4 buffer. Nonspecific binding was measured in the presence of 10 μM SB222200 for both radioligands. The radioactivity on the filter was counted (5 min) on a Packard Top-count microplate scintillation counter with quenching correction after addition of 45 μl of microscint 40 (Canberra Packard S.A., Zutrich, Switzerland) and shaking for 1 h. Inhibition curves were fitted according to the Hill equation: y=100/(1+(x/IC50)^nH), where nH=slope factor using Excel-fit 4 software (Microsoft). IC50 values were derived from the inhibition curve and the affinity constant (Ki) values were calculated using the Cheng-Prussoff equation Ki=IC50/(1+[L]/KD) where [L] is the concentration of radioligand and KD is its dissociation constant at the receptor, derived from the saturation isotherm. All experiments were performed in duplicate and the mean ± standard error (SEM) of the individual Ki values was calculated.

| Ki [nM] | Compound |
| --- | --- |
| 9.1 | Cc1cc(C(=O)N2C[C@H]([C@H](C)Oc3ccc(C#N)cn3)[C@@H](c3ccc(Cl)c(Cl)c3)C2)cnn1 (racemic) [Example 89, 6-{(SR)-1-[(3RS,4SR)-4-(3,4-Dichloro-phenyl)-1-(6-methyl-pyridazine-4-carbonyl)-pyrrolidin-3-yl]-ethoxy}-nicotinonitrile] |
| 2.6 | Cc1cc(C(=O)N2C[C@H]([C@H](C)Oc3ccc(Cl)cn3)[C@@H](c3ccc(Cl)c(F)c3)C2)cnn1 [Example 107, {(3S,4R)-3-(4-Chloro-3-fluoro-phenyl)-4-[(S)-1-(5-chloro-pyridin-2-yloxy)-ethyl]-pyrrolidin-1-yl}-(6-methyl-pyridazin-4-yl)-methanone] |
| 22.7 | COc1cc(C(=O)N2C[C@@H]([C@@H](C)Oc3ccc(Cl)cn3)[C@H](c3ccc(Cl)c(Cl)c3)C2)ccn1 (racemic) [Example 18, [(3SR,4RS)-3-[(RS)-1-(5-Chloro-pyridin-2-yloxy)-ethyl]-4-(3,4-dichloro-phenyl)-pyrrolidin-1-yl]-(2-methoxy-pyridin-4-yl)-methanone] |
| 59.4 | CCc1noc(-c2ccc(C(=O)N3C[C@H]([C@H](C)Oc4ccc(C#N)cn4)[C@@H](c4ccc(Cl)c(Cl)c4)C3)cc2)n1 (racemic) [Example 62, 6-((SR)-1-{(3RS,4SR)-4-(3,4-Dichloro-phenyl)-1-[4-(3-ethyl-[1,2,4]oxadiazol-5-yl)-benzoyl]-pyrrolidin-3-yl}-ethoxy)-nicotinonitrile] |
| 3.8 | C[C@H](Oc1ccc(C#N)cn1)[C@H]1CN(C(=O)c2ccc(S(C)(=O)=O)nc2)C[C@@H]1c1ccc(Cl)c(Cl)c1 (racemic) [Example 66, 6-{(SR)-1-[(3RS,4SR)-4-(3,4-Dichloro-phenyl)-1-(6-methanesulfonyl-pyridine-3-carbonyl)-pyrrolidin-3-yl]-ethoxy}-nicotinonitrile] |
| 32.8 | C[C@H](Oc1ccc(C#N)cn1)[C@H]1CN(C(=O)c2ccnnc2)C[C@@H]1c1ccc(Cl)c(Cl)c1 (racemic) [Example 77, 6-{(SR)-1-[(3RS,4SR)-4-(3,4-Dichloro-phenyl)-1-(pyridazine-4-carbonyl)-pyrrolidin-3-yl]-ethoxy}-nicotinonitrile] |
| 4.3 | CCc1ncc(C(=O)N2C[C@H]([C@H](C)Oc3ccc(C#N)cn3)[C@@H](c3ccc(Cl)c(Cl)c3)C2)cc1C (racemic) [Example 86, 6-{(SR)-1-[(3RS,4SR)-4-(3,4-Dichloro-phenyl)-1-(6-ethyl-5-methyl-pyridine-3-carbonyl)-pyrrolidin-3-yl]-ethoxy}-nicotinonitrile] |
| 34.9 | COc1ncc(C(=O)N2C[C@H]([C@H](C)Oc3ccc(C#N)cn3)[C@@H](c3ccc(Cl)c(Cl)c3)C2)cn1 (racemic) [Example 70, 6-{(SR)-1-[(3RS,4SR)-4-(3,4-Dichloro-phenyl)-1-(2-methoxy-pyrimidine-5-carbonyl)-pyrrolidin-3-yl]-ethoxy}-nicotinonitrile] |
| 5.8 | C[C@H](Oc1ccc(C#N)cn1)[C@H]1CN(C(=O)c2ccc(C#N)cc2F)C[C@@H]1c1ccc(Cl)c(Cl)c1 (racemic) [Example 67, 6-{(SR)-1-[(3RS,4SR)-1-(4-Cyano-2-fluoro-benzoyl)-4-(3,4-dichloro-phenyl)-pyrrolidin-3-yl]-ethoxy}-nicotinonitrile] |
| 2.1 | C[C@H](Oc1ccc(C#N)cn1)[C@H]1CN(C(=O)c2ccc(-c3cnco3)cc2)C[C@@H]1c1ccc(Cl)c(Cl)c1 (racemic) [Example 59, 6-{(SR)-1-[(3RS,4SR)-4-(3,4-Dichloro-phenyl)-1-(4-oxazol-5-yl-benzoyl)-pyrrolidin-3-yl]-ethoxy}-nicotinonitrile] |
| 6.1 | C[C@H](Oc1ccc(C#N)cn1)[C@H]1CN(C(=O)c2ccc(-n3ccnc3)nc2)C[C@@H]1c1ccc(Cl)c(Cl)c1 (racemic) [Example 71, 6-{(SR)-1-[(3RS,4SR)-4-(3,4-Dichloro-phenyl)-1-(6-imidazol-1-yl-pyridine-3-carbonyl)-pyrrolidin-3-yl]-ethoxy}-nicotinonitrile] |
| 27.2 | Cc1ncc(C(=O)N2C[C@H]([C@H](C)Oc3ccc(C(F)(F)F)cn3)[C@@H](c3ccc(Cl)c(Cl)c3)C2)cn1 (racemic) [Example 79, {(3SR,4RS)-3-(3,4-Dichloro-phenyl)-4-[(SR)-1-(5-trifluoromethyl-pyridin-2-yloxy)-ethyl]-pyrrolidin-1-yl}-(2-methyl-pyrimidin-5-yl)-methanone] |
| 78.7 | C[C@@H](Oc1ccc(Cl)cn1)[C@@H]1CN(C(=O)c2cnc(S(C)(=O)=O)nc2)C[C@H]1c1ccc(Cl)c(Cl)c1 (racemic) [Example 51, [(3SR,4RS)-3-[(RS)-1-(5-Chloro-pyridin-2-yloxy)-ethyl]-4-(3,4-dichloro-phenyl)-pyrrolidin-1-yl]-(2-methanesulfonyl-pyrimidin-5-yl)-methanone] |
| 33.8 | Cc1ccnc(C(=O)N2C[C@H]([C@H](C)Oc3ccc(C#N)cn3)[C@@H](c3ccc(Cl)c(Cl)c3)C2)c1 (racemic) [Example 92, 6-{(SR)-1-[(3RS,4SR)-4-(3,4-Dichloro-phenyl)-1-(4-methyl-pyridine-2-carbonyl)-pyrrolidin-3-yl]-ethoxy}-nicotinonitrile] |
| 33.6 | C[C@H](Oc1ccc(C#N)cn1)[C@H]1CN(C(=O)c2ccc(F)nc2)C[C@@H]1c1ccc(Cl)c(Cl)c1 (racemic) [Example 75, 6-{(SR)-1-[(3RS,4SR)-4-(3,4-Dichloro-phenyl)-1-(6-fluoro-pyridine-3-carbonyl)-pyrrolidin-3-yl]-ethoxy}-nicotinonitrile] |
| 2 | C[C@H](Oc1ccc(Cl)cn1)[C@H]1CN(C(=O)c2ccc(C#N)nc2)C[C@@H]1c1ccc(Cl)c(Cl)c1 (single isomer, unassigned) [Example 54] |
| 66 | COc1ccc(C(=O)N2C[C@@H]([C@@H](C)Oc3ccc(F)cn3)[C@H](c3ccc(Cl)c(Cl)c3)C2)cn1 (racemic) [Example 26, {(3RS,4SR)-3-(3,4-Dichloro-phenyl)-4-[(RS)-1-(5-fluoro-pyridin-2-yloxy)-ethyl]-pyrrolidin-1-yl}-(6-methoxy-pyridin-3-yl)-methanone] |
| 30.9 | Cc1cc(C(=O)N2C[C@H]([C@H](C)Oc3ccc(C#N)cn3)[C@@H](c3ccc(F)c(F)c3)C2)cnn1 [Example 106, 6-{(S)-1-[(3R,4S)-4-(3,4-Difluoro-phenyl)-1-(6-methyl-pyridazine-4-carbonyl)-pyrrolidin-3-yl]-ethoxy}-nicotinonitrile] |
| 47 | COc1ccc(C(=O)N2C[C@@H]([C@@H](C)Oc3ccc(C#N)cn3)[C@H](c3ccc(Cl)c(Cl)c3)C2)cn1 (racemic) [Example 34, 6-{(RS)-1-[(3SR,4RS)-4-(3,4-Dichloro-phenyl)-1-(6-methoxy-pyridine-3-carbonyl)-pyrrolidin-3-yl]-ethoxy}-nicotinonitrile] |
| 4.8 | C[C@H](Oc1ccc(C(F)(F)F)cn1)[C@H]1CN(C(=O)c2ccc(Cl)nc2)C[C@@H]1c1ccc(Cl)c(Cl)c1 (racemic) [Example 81, (6-Chloro-pyridin-3-yl)-{(3SR,4RS)-3-(3,4-dichloro-phenyl)-4-[(SR)-1-(5-trifluoromethyl-pyridin-2-yloxy)-ethyl]-pyrrolidin-1-yl}-methanone] |

— patent publication US8012998B2, “Pyrrolidine aryl-ether as NK-3 receptor antagonists” (Hoffmann—LA Roche Inc., priority 2007, dated 2011)
